These compounds were tested against T1, Dual specificity protein phosphatase 1 (Homo sapiens, UniProt P28562) (assay: MKP-1 phosphatase inhibitors, SAR follow-up, biochemical, in vitro (AID 579)). Conditions: pH 7; 23 °C.
T1 sequence (P28562 whole entry): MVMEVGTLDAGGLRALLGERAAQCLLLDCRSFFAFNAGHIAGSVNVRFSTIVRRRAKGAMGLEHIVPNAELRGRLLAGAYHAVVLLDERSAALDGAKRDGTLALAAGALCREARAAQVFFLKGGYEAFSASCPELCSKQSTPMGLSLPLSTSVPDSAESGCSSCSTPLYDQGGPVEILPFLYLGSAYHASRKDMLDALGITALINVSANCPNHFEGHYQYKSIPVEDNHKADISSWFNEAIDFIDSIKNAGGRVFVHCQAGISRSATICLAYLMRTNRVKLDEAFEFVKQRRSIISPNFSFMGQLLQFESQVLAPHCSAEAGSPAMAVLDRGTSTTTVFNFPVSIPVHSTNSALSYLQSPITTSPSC
For CN(C)/C=N/c1cc(=O)n(Cc2ccccc2)c(=O)n1C [CC-PMLSC-DMA-P131], the IC50 was > 50 µM. For Cn1c(N)c(C(=O)COC(=O)c2cc(C3CC3)nc3ccccc23)c(=O)n(C)c1=O [2-cyclopropyl-4-quinolinecarboxylic acid [2-(4-amino-1,3-dimethyl-2,6-dioxo-5-pyrimidinyl)-2-oxoethyl] ester], the IC50 was > 50 µM. For Cn1c(=O)c(C(=O)COC(=O)c2cc(-c3ccco3)nc3ccccc23)c(N)n(CC2CC2)c1=O [2-(2-furanyl)-4-quinolinecarboxylic acid [2-[6-amino-1-(cyclopropylmethyl)-3-methyl-2,4-dioxo-5-pyrimidinyl]-2-oxoethyl] ester], the IC50 was 24.6 µM. Cn1c(N)c(C(=O)COC(=O)c2cc(C3CC3)nc3ccccc23)c(=O)n(Cc2ccccc2)c1=O [2-cyclopropyl-4-quinolinecarboxylic acid [2-[6-amino-1-methyl-2,4-dioxo-3-(phenylmethyl)-5-pyrimidinyl]-2-oxoethyl] ester] showed an IC50 of 28.9 µM. In the case of CN(C)/C=N/c1cc(=O)n(C)c(=O)n1CC1CC1 [CC-PMLSC-DMA-P142], the IC50 is reported as > 50 µM. In the case of Cn1c(N)cc(=O)n(Cc2ccccc2)c1=O [6-amino-1-methyl-3-(phenylmethyl)pyrimidine-2,4-dione], the IC50 is reported as > 50 µM. In the case of Cn1c(N)c(C(=O)COC(=O)c2cc(-c3ccco3)nc3ccccc23)c(=O)n(Cc2ccccc2)c1=O [2-(2-furanyl)-4-quinolinecarboxylic acid [2-[6-amino-1-methyl-2,4-dioxo-3-(phenylmethyl)-5-pyrimidinyl]-2-oxoethyl] ester], the IC50 is reported as 16.9 µM. CN(C)C=Nc1cc(=O)[nH]c(=O)n1CC1CC1 [CC-PMLSC- DMA-P139] was tested, and the IC50 was > 50 µM. In the case of Cn1c(N)c(C(=O)COC(=O)c2cc(C(F)(F)F)nc3c(C(F)(F)F)cccc23)c(=O)n(Cc2ccccc2)c1=O [2,8-bis(trifluoromethyl)-4-quinolinecarboxylic acid [2-[6-amino-1-methyl-2,4-dioxo-3-(phenylmethyl)-5-pyrimidinyl]-2-oxoethyl] ester], the IC50 is reported as > 50 µM. With CC(C)Cn1c(N)c(C(=O)COC(=O)c2cc(C(F)(F)F)nc3c(C(F)(F)F)cccc23)c(=O)n(C)c1=O [2,8-bis(trifluoromethyl)-4-quinolinecarboxylic acid [2-[4-amino-1-methyl-3-(2-methylpropyl)-2,6-dioxo-5-pyrimidinyl]-2-oxoethyl] ester] the IC50 was > 50 µM. For Cn1c(N)c(C(=O)CCl)c(=O)n(Cc2ccccc2)c1=O [6-amino-3-benzyl-5-(2-chloroacetyl)-1-methyl-pyrimidine-2,4-quinone], the IC50 was > 50 µM. With O=C(O)c1cc(C(F)(F)F)nc2c(C(F)(F)F)cccc12 [2,8-bis(trifluoromethyl)-4-quinolinecarboxylic acid] the IC50 was > 50 µM. Oc1cc(C(F)(F)F)nc2c(C(F)(F)F)cccc12 [2,8-bis(trifluoromethyl)-1H-quinolin-4-one] was tested, and the IC50 was > 50 µM. For CN(C)C=Nc1cc(=O)[nH]c(=O)n1C [N,N-dimethyl-N'-(3-methyl-2,6-dioxo-4-pyrimidinyl)methanimidamide], the IC50 was > 50 µM. In the case of CC(C)Cn1c(N)c(C(=O)COC(=O)c2cc(-c3ccccc3)nc3ccccc23)c(=O)n(C)c1=O [2-phenyl-4-quinolinecarboxylic acid [2-[4-amino-1-methyl-3-(2-methylpropyl)-2,6-dioxo-5-pyrimidinyl]-2-oxoethyl] ester], the IC50 is reported as > 50 µM. In the case of Cn1c(N)c(C(=O)COC(=O)c2cc(-c3ccccc3)nc3ccccc23)c(=O)n(C)c1=O [2-phenyl-4-quinolinecarboxylic acid [2-(4-amino-1,3-dimethyl-2,6-dioxo-5-pyrimidinyl)-2-oxoethyl] ester], the IC50 is reported as > 50 µM. Cn1c(=O)cc(N)n(Cc2ccccc2)c1=O [6-amino-1-benzyl-3-methyl-pyrimidine-2,4-quinone] was tested, and the IC50 was > 50 µM. FC(F)(F)c1cc(Br)c2cccc(C(F)(F)F)c2n1 [4-bromanyl-2,8-bis(trifluoromethyl)quinoline] was tested, and the IC50 was > 50 µM. In the case of O=C(O)c1cc(C(F)(F)F)nc2ccccc12 [2-(trifluoromethyl)-4-quinolinecarboxylic acid], the IC50 is reported as > 50 µM. For CC(C)Cn1c(N)c(C(=O)CCl)c(=O)n(C)c1=O [6-amino-5-(2-chloro-1-oxoethyl)-3-methyl-1-(2-methylpropyl)pyrimidine-2,4-dione], the IC50 was > 50 µM. In the case of Cn1c(N)c(C(=O)COC(=O)c2ccnc3ccccc23)c(=O)n(C)c1=O [4-quinolinecarboxylic acid [2-(4-amino-1,3-dimethyl-2,6-dioxo-5-pyrimidinyl)-2-oxoethyl] ester], the IC50 is reported as > 50 µM. In the case of CC(C)Cn1c(N)c(C(=O)COC(=O)c2cc(C(F)(F)F)nc3ccccc23)c(=O)n(C)c1=O [2-(trifluoromethyl)-4-quinolinecarboxylic acid [2-[4-amino-1-methyl-3-(2-methylpropyl)-2,6-dioxo-5-pyrimidinyl]-2-oxoethyl] ester], the IC50 is reported as > 50 µM. Cn1c(N)c(C(=O)COC(=O)c2cc(-c3ccco3)nc3ccccc23)c(=O)n(C)c1=O [2-(2-furanyl)-4-quinolinecarboxylic acid [2-(4-amino-1,3-dimethyl-2,6-dioxo-5-pyrimidinyl)-2-oxoethyl] ester] showed an IC50 of 20.6 µM. For Nc1cc(=O)[nH]c(=O)n1Cc1ccccc1 [6-amino-1-benzylpyrimidine-2,4-dione], the IC50 was > 50 µM. For Cn1c(N)c(C(=O)COC(=O)c2cc(C(F)(F)F)nc3ccccc23)c(=O)n(C)c1=O [2-(trifluoromethyl)-4-quinolinecarboxylic acid [2-(4-amino-1,3-dimethyl-2,6-dioxo-5-pyrimidinyl)-2-oxoethyl] ester], the IC50 was > 50 µM. Compound Cn1c(=O)c(C(=O)COC(=O)c2cc(-c3ccccc3)nc3ccccc23)c(N)n(Cc2ccccc2)c1=O [2-phenyl-4-quinolinecarboxylic acid [2-[4-amino-1-methyl-2,6-dioxo-3-(phenylmethyl)-5-pyrimidinyl]-2-oxoethyl] ester] has an IC50 of 50 µM. Cn1c(=O)c(C(=O)CCl)c(N)n(CC2CC2)c1=O [6-amino-5-(2-chloro-1-oxoethyl)-1-(cyclopropylmethyl)-3-methylpyrimidine-2,4-dione] was tested, and the IC50 was > 50 µM. With N#CCC(=O)NC(=O)NCC1CC1 [2-cyano-N-(cyclopropylmethylcarbamoyl)acetamide] the IC50 was > 50 µM. For Cn1c(=O)c(C(=O)CCl)c(N)n(Cc2ccccc2)c1=O [6-amino-1-benzyl-5-(2-chloroacetyl)-3-methyl-pyrimidine-2,4-quinone], the IC50 was > 50 µM. Cn1c(=O)c(C(=O)COC(=O)c2cc(-c3ccco3)nc3ccccc23)c(N)n(Cc2ccccc2)c1=O [[2-(6-amino-1-benzyl-3-methyl-2,4-dioxopyrimidin-5-yl)-2-oxoethyl] 2-(furan-2-yl)quinoline-4-carboxylate] showed an IC50 of 13.4 µM. For O=C(O)c1cc(C2CC2)nc2ccccc12 [2-cyclopropyl-4-quinolinecarboxylic acid], the IC50 was > 50 µM. Work on CC(C)Cn1c(N)c(C(=O)COC(=O)c2cc(-c3ccco3)nc3ccccc23)c(=O)n(C)c1=O [2-(2-furanyl)-4-quinolinecarboxylic acid [2-[4-amino-1-methyl-3-(2-methylpropyl)-2,6-dioxo-5-pyrimidinyl]-2-oxoethyl] ester] yielded an IC50 of 50 µM. For O=C(O)c1cc(-c2ccco2)nc2ccccc12 [2-(2-furanyl)-4-quinolinecarboxylic acid], the IC50 was > 50 µM. With NC(=O)NCC1CC1 [1-(cyclopropylmethyl)urea] the IC50 was > 50 µM. In the case of CN(C)/C=N/c1cc(=O)n(C)c(=O)n1Cc1ccccc1 [CC-PMLSC-DMA-P129], the IC50 is reported as > 50 µM. In the case of Cn1c(=O)c(C(=O)COC(=O)c2cc(C(F)(F)F)nc3c(C(F)(F)F)cccc23)c(N)n(CC2CC2)c1=O [2,8-bis(trifluoromethyl)-4-quinolinecarboxylic acid [2-[6-amino-1-(cyclopropylmethyl)-3-methyl-2,4-dioxo-5-pyrimidinyl]-2-oxoethyl] ester], the IC50 is reported as > 50 µM. In the case of NC(=O)NCc1ccccc1 [(phenylmethyl)urea], the IC50 is reported as > 50 µM. Cn1c(N)c(C(=O)COC(=O)c2cc(C(F)(F)F)nc3c(C(F)(F)F)cccc23)c(=O)n(C)c1=O [2,8-bis(trifluoromethyl)-4-quinolinecarboxylic acid [2-(4-amino-1,3-dimethyl-2,6-dioxo-5-pyrimidinyl)-2-oxoethyl] ester] was tested, and the IC50 was > 50 µM. For Cn1c(N)c(C(=O)CCl)c(=O)n(C)c1=O [6-amino-5-(2-chloro-1-oxoethyl)-1,3-dimethylpyrimidine-2,4-dione], the IC50 was > 50 µM. Cn1c(N)c(C(=O)COC(=O)c2cc(-c3ccccc3)nc3ccccc23)c(=O)n(Cc2ccccc2)c1=O [2-phenyl-4-quinolinecarboxylic acid [2-[6-amino-1-methyl-2,4-dioxo-3-(phenylmethyl)-5-pyrimidinyl]-2-oxoethyl] ester] was tested, and the IC50 was > 50 µM. For Cn1c(=O)c(C(=O)COC(=O)c2cc(C(F)(F)F)nc3c(C(F)(F)F)cccc23)c(N)n(Cc2ccccc2)c1=O [2,8-bis(trifluoromethyl)-4-quinolinecarboxylic acid [2-[4-amino-1-methyl-2,6-dioxo-3-(phenylmethyl)-5-pyrimidinyl]-2-oxoethyl] ester], the IC50 was > 50 µM. With Nc1cc(=O)[nH]c(=O)n1CC1CC1 the IC50 was > 50 µM. For CC(C)Cn1c(N)c(C(=O)COC(=O)c2cc(C3CC3)nc3ccccc23)c(=O)n(C)c1=O [2-cyclopropyl-4-quinolinecarboxylic acid [2-[4-amino-1-methyl-3-(2-methylpropyl)-2,6-dioxo-5-pyrimidinyl]-2-oxoethyl] ester], the IC50 was > 50 µM. In the case of Cn1c(=O)c(C(=O)COC(=O)c2cc(C3CC3)nc3ccccc23)c(N)n(Cc2ccccc2)c1=O [2-cyclopropyl-4-quinolinecarboxylic acid [2-[4-amino-1-methyl-2,6-dioxo-3-(phenylmethyl)-5-pyrimidinyl]-2-oxoethyl] ester], the IC50 is reported as > 50 µM.

— BindingDB's records for doi:10.7270/Q29G5K5D (Cc_Pmlsc, 2007)
